# Assay results: US20090318426A1, “USE OF FLUMAZENIL IN THE MANUFACTURE OF A MEDICAMENT FOR THE TREATMENT OF DEPRESSIVE DISORDERS” (priority 2006, published 2009)
# Legend:
# [1] = test system: patients presenting a depressive disorder; assay: SCL-90-R (Symptom Checklist 90 Revised) scale in patients treated with flumazenil; format: in vivo, human; details: for SCL-90-R at the end: after third administration of flumazenil 2 mg/day, 0.2 mg every 3 minutes
# Method: (§1) Three patients presenting a depressive disorder were subjected to treatment.
# (§2) Flumazenil was administered in doses of 0.2 mg every 3 minutes (up to a total of 2 mg/day). […] Before starting the first administration of flumazenil, a test consisting of the administration of a bolus of 0.1 mg of flumazenil was conducted to evaluate the reaction of the subject.
# [2] = test system: patients presenting a depressive disorder; details: in vivo
# Method: as §1
# During the assessment prior to the admission, a thorough psychopathological and medical evaluation was conducted first thing in the morning (9:00 AM). The medical examination included an electrocardiogram and a complete blood analysis, in which the different cell series (red blood cells, white blood cells and platelets) and the biochemical profile (glucose, creatinine, urea, cholesterol and the fractions thereof, triglycerides, alkaline phosphatase, GOT, GPT, GGT, LDH, total proteins, etc.) were studied.
# Flumazenil was administered in doses of 0.2 mg every 3 minutes (up to a total of 2 mg/day). This quantity per dose was established to reduce as much as possible undesirable side effects related to possible interactions with other drugs or psychopathologies. Before starting the first administration of flumazenil, a test consisting of the administration of a bolus of 0.1 mg of flumazenil was conducted to evaluate the reaction of the subject.
# [3] = test system: patients presenting a depressive disorder; assay: Clinical observation of mood, attention and sleep after administration of flumazenil; format: in vivo, human; details: for changes in mood: three patients
# Method: as §1, §2
compound,measurement,setting,value
"CCOC(=O)c1ncn2c1CN(C)C(=O)c1cc(F)ccc1-2 [Flumazenil, 8-fluoro-5,6-dihydro-5-methyl-6-oxo-4H-imidazol[1,5-α][1,4]benzodiazepine-3-carboxylic acid ethyl ester]",SCL-90-R depression values,"[1]; after third administration, versus start",reduction in the depression values
same,SCL-90-R at the end,"[1]; patient P01 (associated cocaine consumption), SCL-90-R at the start 78",0
same,SCL-90-R at the end,"[1]; patient P02 (associated cocaine consumption), SCL-90-R at the start 48",30
same,SCL-90-R at the end,"[1]; patient P03 (associated alcohol consumption), SCL-90-R at the start 92",25
same,blood pressure values,[2],remained within the range of normal
same,cardiovascular values,[2],remained within normal parameters
same,cardiovascular values (heart rate and blood pressure),[2],did not undergo significant changes
same,heart rate values,[2],did not undergo any significant increases
same,secondary symptoms,[2],Secondary symptoms did not occur
same,symptoms associated to administration,[2],no symptoms associated to such administration
same,mood of the treated patients,[3]; 2 mg/day divided into doses of 0.2 mg every 3 minutes,substantially improves the mood
same,"attention, concentration and other superior faculties",[3]; after third administration,"improvement of attention, concentration and other superior faculties being more evident"
same,existing sleep disorders,[3]; after third administration,completely corrected
same,sleep (early waking),"[3]; patient P01, first night after first administration",did not occur on this first night
same,sleep (difficulty in falling asleep),"[3]; patient P03, first night after first administration",fell asleep early in the night
same,changes in mood,"[3]; after first administration, with respect to time of admission",feeling of wellbeing and more calmness
same,changes in mood,[3]; after second administration,better mood
same,time until induced improvement reaches a clinical level,[3]; treatment of depressive disorders,less than one week
